In patent publication US7671203B2, “Method and system for separation and purification of at least one narcotic alkaloid using reverse phase preparative chromatography” (Mallinckrodt Inc., priority 2003, dated 2010):

Assay: Solubility of codeine in water

## COc1ccc2c3c1O[C@H]1[C@@H](O)C=C[C@H]4[C@@H](C2)N(C)CC[C@@]341 [Codeine, codeine]
  concentration above which codeine is not fully soluble in water: ≤ 30 grams/liter
